Series [1] is described as follows: Rat pharmacokinetic studies, intramuscular. The class given is in vivo, male Sprague Dawley Rats. As to conditions: 0.80 mg/kg, saline. The procedure:
The purpose of this study is to determine the pharmacokinetics of test compounds in plasma, following intramuscular administration to male Sprague Dawley Rats (n=3, unless otherwise specified).
The dose formulation of 400 mg base equivalents/ml in sesame oil+1% benzyl alcohol (unless otherwise specified) was administered by intramuscular injection. The dose volume was determined by the animals' body weight determined on the morning of dosing day.
Each collected blood sample was centrifuged for 4 minutes at 4° C. and 10000 rpm for plasma collection. Plasma was collected and transferred into a pre-labeled PP tube in dry ice at each time point and precipitated immediately using ACN at a ratio of 1:4 (plasma:ACN). Centrifuged again (10 minutes, 12000 rpm) and obtain the supernatant. After terminal collection, all supernatant was stored at approximately −80° C. until bioanalysis.
LC-MS/MS methods for the quantitative determination of test compound in biological matrix were developed. […] The sample analysis was performed concurrently with a set of calibration standards and two sets of QC samples using the LC-MS/MS method.
Plasma concentration versus time data was analyzed by non-compartmental approaches using the Phoenix WinNonlin 6.3 software program. Cmax, Tmax, T1/2, AUC(0-t), AUC(0-inf), MRT(0-t), MRT(0-inf) and graphs of plasma concentration versus time profile were prepared.

A short description of series [2]: Polymorph screening of solid state drug substances. As to conditions: for Dry method and appearance: after stirring 50 °C 72 hours, dried solid; for XRPD results (Dried): dried solid after 50 °C 72 hours; for Visual observation 50° C. / Visual observation RT: target conc. 100 mg/ml.
Series [3] can be described thus: Plasma stability assay, rat plasma. In kind it is in vitro ADME. As to conditions: 10 μM, 37° C. The gist of the method: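 Rat plasma incubations were sampled at 0, 15, 120, 480 and 1440 min. For dog, monkey and human plasma, compounds at 2 μM (1% final solvent) were incubated at 37 °C and sampled at 0, 10, 30, 60 and 120 min. Duplicates; % parent remaining measured by HPLC-MS.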

Experiment in series [4]: not given
This is another data set of the same source.

The conditions of series [5]: cited from earlier work.
Series [6] is described as follows: Plasma stability assay, dog plasma. In kind it is in vitro ADME. As to conditions: 2 μM, 37° C. The protocol: (§1) Plasma stability determination of the test compounds in rat, dog, cynomolgus monkey and human plasma is performed using HPLC-MS. For rat, incubations are carried out in 96-well polypropylene plates in 5 aliquots of 70 μL each (one for each time point). […] Five time points are analyzed (0, 15, 120, 480 and 1440 min). […] All incubations are performed in duplicates. The samples are analyzed by HPLC-MS. The percentage of parent compound remaining after incubation in plasma is determined.

Series [7] is described as follows: Plasma stability assay, monkey plasma. In kind it is in vitro ADME, cynomolgus monkey. As to conditions: 2 μM, 37° C. The protocol:
as §1

A short description of series [8]: Plasma stability assay, human plasma. In kind it is in vitro ADME. Conditions: 2 μM, 37° C. The procedure:
as §1

Series [9] is described as follows: Liver S9 fraction stability, dog. Conditions: dog liver S9, 1.0 mg/ml S9 protein, 2 μM, 37° C. The class given is in vitro ADME. The protocol:
(§2) Liver S9 fraction stability determination of the test compounds in dog, cynomolgus monkey and human is performed using HPLC-MS. Test compound (2 μM, 0.1% DMSO, 1% Methanol final concentration) was assessed for stability in a 50 μl phosphate buffer containing 1.0 mg/ml S9 protein from each of the three species and 5 mM D-saccharic acid-1, 4-lactone. Samples were incubated at 37° C. for 60 minutes and the % compound remaining was assessed.

Series [10] in a line: Liver S9 fraction stability, monkey. In kind it is in vitro ADME, cynomolgus monkey. Conditions: monkey liver S9, 1.0 mg/ml S9 protein, 2 μM, 37° C. The protocol: as §2
Series [11] is described as follows: Liver S9 fraction stability, human. The class given is in vitro ADME. As to conditions: human liver S9, 1.0 mg/ml S9 protein, 2 μM, 37° C. The protocol: as §2
A further series addresses T1, DOR (Homo sapiens, UniProt P41143).
T1 construct: expressed in transfected cells
Description: Opioid receptor binding assay, DOR ([3H]-DADLE). Conditions: MaxDose 10000 nM. The protocol: Receptor binding assays were performed to assess the ability of compounds to inhibit binding to radiolabeled ligand.
The stable cell lines were established and prepared cell membrane obtained using these cell lines.
3) Assay Procedure 1) Transfer 1 μl of specified concentration compound to assay plate according to the plate map for nonspecific binding. Transfer 1 μl of DMSO to assay plate according to plate map for total binding. 2) Follow the plate map. Dispense 99 μl of membrane stocks into the plate. 3) Add 100 μl of radio ligand. 4) Seal the plates. Incubate at RT for 1 hour. 5) Soak the Unifilter-96 GF/C filter plates with 50 μl of 0.3% PEI per well for at least 0.5 hour at room temperature. 6) When binding assays are completed, filter the reaction mixture through GF/C plates using Perkin Elmer Filtermate Harvester, and then wash each plate for 4 times with cold wash buffer. 7) Dry the filter plates for 1 hour at 50 degrees. 8) After drying, seal the bottom of the filter plate wells using Perkin Elmer Unifilter-96 backing seal tape. Add 50 μl of Perkin Elmer Microscint 20 cocktail. Seal top of filter plates with Perkin Elmer TopSeal-A sealing film. 9) Count ^3H trapped on filter using Perkin Elmer MicroBeta2 Reader second day. 10) Analyze the data with GraphPad Prism 5. Calculate the “Inhibition [% Control]” using the equation: % Inh=(1-Background subtracted Assay value/Background subtracted HC value)*100. Results

The mark [12] stands for this setting: heating temp. 60 °C, obs. temp. 25 °C.
Setting [13] is: heating temp. 60 °C, obs. temp. 40 °C.
The mark [14] stands for this setting: heating temp. 40 °C, obs. temp. 40 °C.

The values that follow come from US10533015B1, “Opioid receptor antagonist prodrugs” (Nirsum Laboratories, Inc., priority 2019, dated 2020).

As usually defined, the melting point is the temperature, or range, at which the solid turns liquid.

Like-named read-outs stand apart in the source and are kept apart here.

T1 sequence (P41143 whole entry): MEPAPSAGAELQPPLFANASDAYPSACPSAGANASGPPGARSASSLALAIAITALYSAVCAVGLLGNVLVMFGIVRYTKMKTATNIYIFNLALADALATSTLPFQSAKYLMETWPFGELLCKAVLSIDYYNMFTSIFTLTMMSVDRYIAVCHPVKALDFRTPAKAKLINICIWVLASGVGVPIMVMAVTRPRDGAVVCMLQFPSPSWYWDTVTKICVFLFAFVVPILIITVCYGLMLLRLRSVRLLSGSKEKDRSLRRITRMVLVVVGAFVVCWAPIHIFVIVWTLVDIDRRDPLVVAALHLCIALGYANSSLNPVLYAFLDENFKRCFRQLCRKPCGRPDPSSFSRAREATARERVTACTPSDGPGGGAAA

On to `C=C1CC[C@@]2(O)C3Cc4ccc(O)c5c4[C@@]2(CCN3CC2CC2)[C@H]1O5.Cl` [Nalmefene HCl-IR], for which, in [1], the “AUC0-inf (ng · h/mL) nalmefene” value turned out to be 66.0 ng·h/mL and the “Terminal Half-life t1/2 (hour) nalmefene” value worked out at 0.87 h.
In the case of `C=C1CC[C@@]2(O)C3Cc4ccc(OC(=O)NC(C)(C)C)c5c4[C@@]2(CCN3CC2CC2)[C@H]1O5` [Compound 40, (4aS,7aS,12bS)-3-(cyclopropylmethyl)-4a-hydroxy-7-methylene-2,3,4,4a,5,6,7,7a-octahydro-1H-4,12-methanobenzofuro[3,2-e]isoquinolin-9-yl tert-butylcarbamate], the melting point was 107.6 °C. In series [2] (Acetone), the “Dry method and appearance” value is “Evaporation/white powder”; the “XRPD results (Dried)” value is reported as “Amorphous”; the “Visual observation 50° C.” value is given as “Clear”; the “Visual observation RT” value was “Slurry”. Also, in [2] (EtOAc), the “Dry method and appearance” value is listed as “Evaporation/white powder”; the “XRPD results (Dried)” value is “Pattern A”; the “Visual observation 50° C.” value is listed as “Clear”; the “Visual observation RT” value is given as “Slurry”. Besides, in [2] (Heptane), the “Dry method and appearance” value is on record as “Centrifugation/white powder”; the “XRPD results (Dried)” value is recorded as “Pattern A”; the “Visual observation 50° C.” value is recorded as “Slurry”; the “Visual observation RT” value was “Slurry”. In addition, in series [2] (Isopropanol), the “Dry method and appearance” value was “Evaporation/oil”; the “XRPD results (Dried)” value is given as “Amorphous”; the “Visual observation 50° C.” value is given as “Clear”; the “Visual observation RT” value is listed as “Slurry”. In addition, in [2] (MTBE), the “Dry method and appearance” value is recorded as “Evaporation/white powder”; the “XRPD results (Dried)” value is on record as “Amorphous”; the “Visual observation 50° C.” value was “Clear”; the “Visual observation RT” value is “Clear”.
`C=C1CC[C@@]2(O)C3Cc4ccc(OC(=O)CCCCCCCCCCCCCCC)c5c4[C@@]2(CCN3CC2CC2)[C@H]1O5` [Compound 56, (4aS,7aS,12bS)-3-(cyclopropylmethyl)-4a-hydroxy-7-methylene-2,3,4,4a,5,6,7,7a-octahydro-1H-4,12-methanobenzofuro[3,2-e]isoquinolin-9-yl palmitate] came in with a melting point of 48.95 °C. In addition, the “% remaining at time point” value in series [3] (0 min) is reported as 100%. Further, the “% remaining at time point” value in series [3] (15 min) came out at 73.1%. Further, in series [3] (120 min), the “% remaining at time point” value is 56.7%. The “% remaining at time point” value in series [3] (480 min) came out at 35.8%. Further, the “% remaining at time point” value in [3] (1440 min) was determined as 16.8%. Moreover, in [4] (setting [12]), the “Approximate Solubility (mg/mL) in Excipient: Cottonseed oil” value (“Approximate Solubility … Cottonseed oil” below) is reported as below 50 mg/mL and the “Approximate Solubility (mg/mL) in Excipient: Sesame oil” value (shortened to “Approximate Solubility … Sesame oil”) was below 50 mg/mL. In series [4] (setting [13]), the “Approximate Solubility … Cottonseed oil” value was 25 to 50 mg/mL, the “Approximate Solubility (mg/mL) in Excipient: Ethanol” value is given as below 40.4 mg/mL and the “Approximate Solubility … Sesame oil” value lay within 25 to 50 mg/mL.
As for `Oc1ccc2c3c1O[C@H]1[C@H](O)CC[C@@]4(O)[C@@H](C2)N(CC2CC2)CC[C@]314` [6-β-naltrexol], in series [5], the “time of peak plasma levels after oral dosing” value is recorded as “within one hour”. In addition, the mean elimination half-life entry in [5] (oral dosing) is listed as “thirteen”.
For `C=C1CC[C@@]2(O)C3Cc4ccc(OC(=O)OCCCCCCCCCCCC)c5c4[C@@]2(CCN3CC2CC2)[C@H]1O5` [Compound 6, (4aS,7aS,12bS)-3-(cyclopropylmethyl)-4a-hydroxy-7-methylene-2,3,4,4a,5,6,7,7a-octahydro-1H-4,12-methanobenzofuro[3,2-e]isoquinolin-9-yl dodecyl carbonate], the “% remaining at time point” value in series [3] (0 min) worked out at 100%; in series [3] (15 min) it was 31.3%; in series [3] (120 min) it was 7.6%; in series [3] (480 min) it was 4%; in [3] (1440 min), 1.6%; in series [6] (0 min) it was 100%. For the same compound, the “% remaining at time point” value in series [6] (15 min (head)) is listed as 89.1%; in series [6] (120 min (head)), 96.9%; in series [6] (480 min (head)) it was 107.2%; in series [6] (1440 min (head)), 101.2%; in series [7] (0 min), 100%; in series [7] (15 min (head)), 88.7%. Moreover, the “% remaining at time point” value was determined as 74.3% in series [7] (120 min (head)); 68.4% in [7] (480 min (head)); 70.1% in [7] (1440 min (head)); 100% in series [8] (0 min); 97.6% in [8] (15 min (head)); 102% in [8] (120 min (head)). Besides, the results for the “% remaining at time point” value in series [8] (480 min (head)) and in series [8] (1440 min (head)) were 109.8% and 115.1%, respectively. The entries for the “% remaining at 60 minutes” value in [9], in [10] and in series [11] were 17.1%, 0% and 5.3%, respectively. Besides, the “% Inh@MaxDose” value on DOR is given as 70.9%. The “Approximate Solubility … Cottonseed oil” value in series [4] (setting [12]) was above 397 mg/mL. In addition, the “Approximate Solubility (mg/mL) in Excipient: Ethanol” value in series [4] (setting [14]) was in the range of 120 to 170 mg/mL. The “Approximate Solubility … Sesame oil” value is reported as above 402.8 mg/mL in series [4] (setting [14]) and above 386 mg/mL in series [4] (setting [12]).
